Measured values reported in patent publication US20160120938A1, “P2X7 RECEPTOR AGONIST FOR USE IN PREVENTING OR TREATING KIDNEY INJURY” (UCL BUSINESS PLC, priority 2013, published 2016).

Experiments:
Assay type in all cases: in vivo
[1] = target: T1, P2X7R (Rattus norvegicus, UniProt Q64663); test: Creatinine in BDL rats given LPS infusion with intra-renal P2X7R agonist; settings: LPS 0.25 mg/kg iv over 3 hours
T1 construct: upregulation of the tubular expression of the P2X7R; from tissue; host or cells: kidney of living Sprague-Dawley rats (sham, BDL, BDL+LPS); compounds dosed in vivo
T1 sequence (Q64663 1-595): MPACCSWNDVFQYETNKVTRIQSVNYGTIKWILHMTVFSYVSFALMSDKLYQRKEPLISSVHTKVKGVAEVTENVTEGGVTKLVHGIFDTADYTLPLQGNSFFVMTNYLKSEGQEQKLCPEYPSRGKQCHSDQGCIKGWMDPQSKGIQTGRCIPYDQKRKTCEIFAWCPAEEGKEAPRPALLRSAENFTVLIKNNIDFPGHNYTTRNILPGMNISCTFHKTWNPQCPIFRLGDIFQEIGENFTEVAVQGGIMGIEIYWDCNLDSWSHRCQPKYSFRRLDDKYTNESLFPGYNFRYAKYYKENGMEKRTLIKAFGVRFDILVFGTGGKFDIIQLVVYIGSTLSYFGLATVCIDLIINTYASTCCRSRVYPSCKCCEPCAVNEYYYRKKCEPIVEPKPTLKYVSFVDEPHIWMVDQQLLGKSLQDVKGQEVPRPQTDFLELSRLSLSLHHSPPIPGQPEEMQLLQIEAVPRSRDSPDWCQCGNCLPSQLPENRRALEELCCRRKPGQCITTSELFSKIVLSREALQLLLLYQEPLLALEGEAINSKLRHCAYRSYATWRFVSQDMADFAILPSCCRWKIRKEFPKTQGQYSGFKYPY
Description: (§1) These experiments utilised an established animal model of cirrhosis, the bile duct ligated (BDL) rat. BDL rats may be generated by methods known in the art. For example, male Sprague-Dawley rats (200-250 g) may be used for this procedure. Following anaesthetisation, a mid-line laparotamy may be performed, the bile duct exposed, triply ligated with 4.0 silk suture, and severed between the second and third ligature. The wound is then closed in layers with absorbable suture, and the animal allowed to recover in a quiet room before being returned to the animal storage facility. Sham animals underwent sham laparotomy. The BDL model was studied 4 weeks after bile duct ligation and liver histology confirmed advanced fibrosis.
Rats were given a continuous intravenous infusion of LPS at 0.25 mg/kg over 3 hours. The P2X7R agonist BzATP was infused into the renal artery 30 mins before LPS infusion began and continued for the duration of the experiment at a dose of 150 μg/hour.

[2] = target: T1, P2X7R; test: P2X7 receptor expression in kidneys, cirrhotic AKI model (BDL rat + LPS), immunohistochemistry; settings: 300 μmol/kg IP 12-hourly for 7 days, with or without LPS 0.5 mg/kg IP, n=3 in each group, FIG. 3
Description: as §1
(§2) LPS (lipopolysaccharide) was given at a dose of 0.5 mg/kg intra-peritoneal. The P2X7R antagonist (A-438079) was given at a dose of 300 μmol/kg 12-hourly 7 days before LPS was given (if applicable). Animals were terminated 3 hours post LPS dose. P2X7RA=P2X7R antagonist.
Urine was collected for assessment of urinary biomarkers of acute kidney injury (AKI). Blood was collected for biochemistry, endotoxin and cytokine analysis. Tissue was collected for histology, immunohistochemistry and western blot. Brain frontal cortex was collected to ascertain brain water. Biochemistry was measured using COBAS integra. Urinary NGAL was measured by ELISA. […]

[3] = target: T1, P2X7R; test: Biomarkers of acute kidney injury in cirrhotic AKI model (BDL rat + LPS) with P2X7R antagonist; settings: 300 μmol/kg 12-hourly 7 days before LPS 0.5 mg/kg IP, terminated 3 hours post LPS
Description: as §1, §2
Urine was collected for assessment of urinary biomarkers of acute kidney injury (AKI). Blood was collected for biochemistry, endotoxin and cytokine analysis. Tissue was collected for histology, immunohistochemistry and western blot. Brain frontal cortex was collected to ascertain brain water. Biochemistry was measured using COBAS integra. Urinary NGAL was measured by ELISA.

Row | increased P2X7 receptor expression in kidneys (tubular expression) of BDL and BDL+LPS animals [2] | Compound | Creatinine (mean) ([1]; BDL + LPS + BzATP group, 150 μg/hour into renal artery) [µmol/L] | reduction of LPS induced rise in creatinine ([1]; BDL rat, infused into renal artery 150 μg/hour from 30 mins before LPS, FIG. 7) [%] | biomarkers of acute kidney injury (urine NGAL, creatinine) compared to the other groups ([3]; FIG. 4) | biomarkers of acute kidney injury (urine NGAL, creatinine) compared to the other groups ([3]; FIG. 4, listed as P2X7R antagonist)
1 |  | 2′(3′)-O-(4-Benzoylbenzoyl)adenosine-5′-triphosphate [BzATP] | 57.93 | 24 |  | 
2 | attenuated | Clc1cccc(-c2nnnn2Cc2cccnc2)c1Cl [A-438079] |  |  | greater | higher
